# Data published in patent US20090170091A1, “Method For Predicting Biological Systems Responses” (priority 2006, published 2009).
# Read-outs that look alike come from different tables or passages of the source.
# What was measured:
# [1] = test system: HepG2 cells; assay: CellCipher cytotox profile, multiplexed HCS toxicity panel (11 cytotoxicity parameters, two plate assay); format: cell-based
# Description: This example pertains to a multiplexed toxicity HCS profiling panel. It describes the performance of a specific CellCipher™ cytotox profile which is designed to measure 11 cytotoxicity parameters using a two plate assay.
# Assay and Reagent Specifications. […] The antibody and fluorescent indicators of cell physiology reagent specifications for Cytotox Profile Plate 1 are contained in Table 7 whereas the antibody and fluorescent indicators of cell physiology reagent specifications for Cytotox Profile Plate 2 are contained in Table 8. Finally, the assay buffer specifications for both Cytotox Profile Plates 1 and 2 are contained in Table 9.
# HepG2 cell handling and plating procedure. HepG2 cells were obtained from the American Type Cell Collection (cat no. HB-8065) and an original seed stock was prepared from one vial containing 1×10^+6 cells. From the seed stock, a working stock was prepared using standard procedures. Cells were thawed form the working stock when required and maintained in culture for 20 passages before being discarded. […]
# Cell plating for cytotox profile. For the cytotox profile, thin bottom 384-well microplates were used that are compatible with the high numerical aperture optics available on most HCS readers. […] Cells were passaged by trypsinization, including trituration, and viable cells counted. […]
# [2] = test system: HeLa cells; conditions: HeLa cells after camptothecin treatment; mRNA abundance; cited from earlier work
structure (smiles),measurement,setting,value
CC[C@H](C)C(=O)O[C@H]1CCC=C2C=C[C@H](C)[C@H](CC[C@@H]3C[C@@H](O)CC(=O)O3)[C@H]21 [mevastatin],degree of activity (IC50 from KS dose-response fits) across the cytotox profile assays,[1],moderate degree of activity (in the μM range) in many assays
CC[C@@]1(O)C(=O)OCc2c1cc1n(c2=O)Cc2cc3ccccc3nc2-1 [camptothecin],"Double strand DNA break repair genes, change",[2],4.0%
same,"Histone genes, change",[2],8.1%
same,"Mitosis related genes, change",[2],9.7%
same,"NF-κB inducible genes, change",[2],12.5%
same,"Nuclear compartment genes, change",[2],16.5%
same,"p53-inducible genes, change",[2],28.1%
CC[C@H](C)C(=O)O[C@H]1C[C@@H](C)C=C2C=C[C@H](C)[C@H](CC[C@@H]3C[C@@H](O)CC(=O)O3)[C@H]21 [lovastatin],degree of activity (IC50 from KS dose-response fits) across the cytotox profile assays,"[1]; HepG2 cells, 11 features at 30 min, 24 h and 72 h, FIG. 9 heat map clusters",moderate degree of activity (in the μM range) in many assays
